# Measured values as given in the supplement of paper PMC10307832.
# Compound: CC(C)(C)c1cc(NC(=O)Nc2ccc(-c3cn4c(n3)sc3cc(OCCN5CCOCC5)ccc34)cc2)no1 [Quizartinib] + Cc1cc(Nc2cc(N3CCN(C)CC3)nc(Sc3ccc(NC(=O)C4CC4)cc3)n2)n[nH]1 [Tozasertib] (partner 0.1 µM)
# Assay: relative viability (nuclei count vs DMSO), 5 days (fraction); higher = more cells survive
# Settings: first compound 0.03162 µM
# Procedure, shortened: (§1)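 Relative viability divides the nuclei count in treated wells by that in vehicle wells. Lung cancer cell lines were seeded in 1536-well plates, dosed by pin tool the next day, and fixed and stained after 5 days in one step with final 0.05% Triton X-100, 1% formaldehyde and 1 ug/ml Hoechst. Dosing was a single drug or a fixed anchor-drug dose plus five library-drug doses (not always all listed) in √10 steps, and values are medians of duplicate plates imaged at 4×.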
row,Cell Line,relative viability
1,SW 900,0.344
2,NCI-H661,0.359
3,NCI-H2342,0.498
4,HCC-44,0.645
5,ChaGo-K-1,0.205
6,COR-L23,0.116
7,NCI-H522,0.559

# Same assay, conditions: first compound 0.1 µM
row,Cell Line,relative viability
1,EKVX,0.334
2,EPLC-272H,0.297
3,NCI-H520,0.385
4,NCI-H650,0.736
5,RERF-LC-KJ,0.337
6,HCC-827,0.411
7,NCI-H2087,0.262
8,SK-MES-1,0.77
9,NCI-H1651,0.5
10,UMC-11,0.222
11,NCI-H1355,0.433
12,H3255,0.544
13,NCI-H647,0.301
14,NCI-H1623,0.511
15,LCLC-97TM1,0.207
16,LXF-289,0.247
17,LU99A,0.272
18,NCI-H2023,0.177

row,Cell Line,relative viability
1,NCI-H2228,0.187
2,NCI-H1437,0.329
3,NCI-H1395,0.682
4,NCI-H2009,0.506
5,HCC-366,0.0582
6,NCI-H1915,0.389
7,COR-L 105,0.347
8,SK-LU-1,0.309
9,SW 900,0.39
10,NCI-H661,0.355
11,NCI-H2342,0.457
12,SW 1573,0.265
13,HCC-44,0.689
14,NCI-H1650,0.238
15,ChaGo-K-1,0.197
16,COR-L23,0.139
17,NCI-H522,0.569

# Compound: CC(C)(C)c1cc(NC(=O)Nc2ccc(-c3cn4c(n3)sc3cc(OCCN5CCOCC5)ccc34)cc2)no1 [Quizartinib] + NC(=O)Nc1cc(-c2cccc(F)c2)sc1C(=O)N[C@H]1CCCNC1 [AZD7762] (partner 0.2 µM)
# Assay: as above
# Settings: first compound 0.001 µM
# Procedure, shortened: as §1
row,Cell Line,relative viability
1,EPLC-272H,0.287
2,NCI-H650,0.858
3,RERF-LC-KJ,0.898
4,HCC-827,0.344
5,NCI-H2087,1.13
6,NCI-H1651,0.473
7,NCI-H1355,0.715
8,H3255,0.905
9,NCI-H1792,0.547
10,NCI-H647,0.39
11,LCLC-97TM1,0.197
12,NCI-H1703,0.155
13,LXF-289,0.816
14,LU99A,0.336
15,NCI-H1437,0.944
16,NCI-H1395,0.477
17,HCC-366,0.272
18,NCI-H1915,0.683
19,SW 900,0.711
20,NCI-H2342,0.505
21,HCC-44,0.976
22,NCI-H522,0.849

# Same assay, conditions: first compound 0.003162 µM
row,Cell Line,relative viability
1,EKVX,0.621
2,EPLC-272H,0.325
3,NCI-H650,0.785
4,RERF-LC-KJ,0.954
5,HCC-827,0.196
6,NCI-H2087,1.15
7,NCI-H1651,0.346
8,NCI-H1355,0.828
9,H3255,0.894
10,NCI-H1792,0.654
11,NCI-H647,0.651
12,LCLC-97TM1,0.334
13,NCI-H1703,0.143
14,LXF-289,1.08
15,LU99A,0.324
16,NCI-H1437,1.05
17,NCI-H1395,0.395
18,HCC-366,0.181
19,NCI-H1915,0.613
20,SW 900,0.498
21,NCI-H2342,0.637
22,HCC-44,1.04
23,ChaGo-K-1,0.841
24,NCI-H522,0.775

# Same assay, conditions: first compound 0.01 µM
row,Cell Line,relative viability
1,EKVX,0.744
2,EPLC-272H,0.258
3,NCI-H650,1.25
4,RERF-LC-KJ,0.945
5,NCI-H2087,1.26
6,NCI-H1651,0.508
7,NCI-H1355,0.622
8,H3255,0.911
9,NCI-H1792,0.691
10,NCI-H647,0.422
11,LCLC-97TM1,0.325
12,LXF-289,1.09
13,LU99A,0.435
14,NCI-H1437,1.17
15,NCI-H1395,0.46
16,HCC-366,0.285
17,NCI-H1915,0.646
18,SW 900,0.597
19,NCI-H2342,0.471
20,HCC-44,0.988
21,ChaGo-K-1,0.981
22,NCI-H522,0.675

# Same assay, conditions: first compound 0.03162 µM
row,Cell Line,relative viability
1,EKVX,0.67
2,EPLC-272H,0.208
3,NCI-H650,0.856
4,RERF-LC-KJ,0.98
5,HCC-827,0.177
6,NCI-H2087,1.38
7,NCI-H1651,0.416
8,NCI-H1355,0.835
9,H3255,0.911
10,NCI-H1792,0.496
11,NCI-H647,0.325
12,LCLC-97TM1,0.179
13,LXF-289,1.11
14,LU99A,0.479
15,NCI-H1437,1.04
16,NCI-H1395,0.367
17,HCC-366,0.119
18,NCI-H1915,0.694
19,SW 900,0.532
20,NCI-H2342,0.544
21,HCC-44,1.02
22,ChaGo-K-1,0.84
23,NCI-H522,0.871

# Same assay, conditions: first compound 0.1 µM
row,Cell Line,relative viability
1,EKVX,0.841
2,EPLC-272H,0.231
3,NCI-H650,1.13
4,RERF-LC-KJ,0.987
5,HCC-827,0.247
6,NCI-H2087,1.3
7,NCI-H1651,0.466
8,NCI-H1355,0.736
9,H3255,1.03
10,NCI-H1792,0.604
11,NCI-H647,0.566
12,LCLC-97TM1,0.361
13,NCI-H1703,0.134
14,LXF-289,1.12
15,LU99A,0.324
16,NCI-H1437,0.943
17,NCI-H1395,0.367
18,HCC-366,0.199
19,NCI-H1915,0.721
20,SW 900,0.58
21,NCI-H2342,0.518
22,HCC-44,1.02
23,ChaGo-K-1,0.932
24,NCI-H522,0.778
